From PMC13576449, “Small-Molecule Activators of PRMT1: Discovery, SAR Analyses, and Proapoptotic Effects in Pancreatic Cancer Cells” (Journal of Medicinal Chemistry, 2026)

How the values were obtained:
FLAG-tagged PRMT3 = target: T1, FLAG-tagged PRMT3 (Homo sapiens, UniProt O60678); test: Fluorescence-based in vitro PRMT assay (F-PRMT assay), PRMT3; assay type: biochemical; settings: for Experimental result (PRMT3): vs solvent control = 100%
T1 construct: The complete ORFs of human PRMT3 and PRMT6 were inserted; made in house; host or cells: Sf9 insect cells (baculovirus)
T1 sequence (O60678 whole entry): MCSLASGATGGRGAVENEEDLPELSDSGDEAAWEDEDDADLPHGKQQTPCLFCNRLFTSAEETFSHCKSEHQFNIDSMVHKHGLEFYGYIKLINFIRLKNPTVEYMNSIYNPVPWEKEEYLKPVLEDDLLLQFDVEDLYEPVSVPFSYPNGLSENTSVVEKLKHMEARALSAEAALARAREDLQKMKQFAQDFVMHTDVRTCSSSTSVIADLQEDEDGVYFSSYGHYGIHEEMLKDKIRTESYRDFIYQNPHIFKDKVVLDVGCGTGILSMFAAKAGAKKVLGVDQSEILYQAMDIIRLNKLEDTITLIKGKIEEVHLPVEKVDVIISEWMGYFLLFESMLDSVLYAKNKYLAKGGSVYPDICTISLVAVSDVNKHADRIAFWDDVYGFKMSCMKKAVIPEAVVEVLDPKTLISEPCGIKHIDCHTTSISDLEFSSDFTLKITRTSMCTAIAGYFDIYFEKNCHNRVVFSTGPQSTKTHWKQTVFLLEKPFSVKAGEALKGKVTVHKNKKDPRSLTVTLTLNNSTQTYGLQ
Source text: To evaluate the effects of the selected candidate molecules on the catalytic activity of type I enzymes, we employed a quantitative fluorescence-based in vitro PRMT activity (F-PRMT) assay using recombinant FLAG-tagged PRMT proteins expressed and affinity-purified from baculovirus-infected Sf9 cells (SI Figure S1, SI Figure S2A).
Human cell lines (PaTu8988T, PANC-1) were obtained from ATCC (American Type Culture Collection) and cultured in DMEM supplemented with 10% fetal calf serum (FCS, Gibco/BRL), 1% penicillin/streptomycin at 37 °C and 5% CO2. […] For PRMT1 inhibition, cells were treated with type I PRMT inhibitor MS023 hydrochloride (Biomol). For induction of genotoxic stress, cells were treated with gemcitabine (LC Laboratories). […] The following plasmids were used: pFASTBAC-FLAG-rat PRMT1, pFASTBAC-FLAG-mouse PRMT4, and pGEX-GAR. The complete ORFs of human PRMT3 and PRMT6 were inserted into the pFASTBAC HT-3xFLAG B vector via BamHI/HindIII and BamHI/XhoI sites, respectively.
For PRMT protein expression in insect cells, recombinant baculovirus (bacmid) was generated using the Bac-to-Bac baculovirus system (Invitrogen). Sf9 cells were transfected with bacmid DNA using X-tremeGENE HP DNA transfection reagent (Sigma-Aldrich) according to the manufacturer's instructions. After 3–5 days, supernatants were collected, filtered, and used to infect Sf9 cells to amplify the virus. After 2 rounds of virus amplification and estimation of the final P3 virus titer, the P3 virus (2–5 μL/10^6 cells) was applied for large-scale infection of 200 × 10^6 Sf9 cells in suspension culture at a density of 1 × 10^6 cells/mL. Cells were harvested 5–6 days post-infection by centrifugation at 500 g for 5 min at room temperature. Protein purification from baculovirus-infected Sf9 cells was performed as previously described. , Cells were lysed in BC buffer (20 mM HEPES pH 7.9, 250 mM NaCl, 10% (v/v) glycerin, 0.4 mM EDTA, 1 mM DTT) containing a protease inhibitor cocktail (Roche) by 3 freeze-thaw cycles. After centrifugation at 11,000 rpm (Sorval SS34 rotor) and 4 °C for 1 h, the supernatant (whole cell protein extract) was incubated with anti-FLAG M2 Affinity Gel (Cytiva) at 4 °C and under agitation for 4 h. Subsequently, beads were washed in BC buffer containing various NaCl concentrations (once in BC with 1 M NaCl, twice in BC with 500 mM NaCl, twice in BC with 250 mM NaCl and twice in BC with 100 mM NaCl). FLAG-tagged proteins were either maintained bead-bound as a 50% (v/v) slurry in BC buffer with 100 mM NaCl and stored at −80 °C or were eluted in the appropriate elution buffer (depending on the subsequent assay) containing 0.25 mg/mL 3xFLAG peptides (Sigma-Aldrich) at 4 °C for 30–45 min. To remove the FLAG-peptides from the eluate, dialysis was performed in elution buffer containing 10% (v/v) glycerol at 4 °C for 4–6 h using Slide-A-Lyzer Dialysis Devices (Thermo Fisher Scientific) according to the manufacturer’s recommendations.
In the first step, the fluorogenic substrate Nα-Benzoyl-L-arginine-7-amido-4-methylcoumarin (Bz-Arg-AMC, Sigma-Aldrich) undergoes methylation by PRMTs upon the addition of the cofactor SAM. In the second reaction step, trypsin cleaves the nonmethylated substrate, leading to the generation of the 7-amino-4-methylcoumarin product, which can be quantified by subsequent fluorescence measurement (excitation: 355 nm, emission: 460 nm). The first reaction was conducted with bead-bound PRMTs at a total volume of 100 μL. Each condition was performed as a technical triplicate to determine the mean and the standard deviation. […] For the negative controls, SAM was substituted with assay buffer. The incubation was continued at 37 °C and under agitation (1,000 rpm) for a duration of 2 h.

ADMA in PANC-1 cells = test: Western blot of global ADMA levels in PANC-1 cells; assay type: cell-based, human; settings: PANC-1, 72 h, 10 and 20 μM (TR-033 2.5 and 5 μM), vs DMSO
Description: As negative control (Ctrl (−)), PRMT1 enzymes and [^14C-methyl]-SAM were incubated without substrates. Subsequently, samples were separated by SDS-PAGE, blotted, and analyzed by autoradiography. Substrates (H2A, H4 or GST-GAR) and molecular weights (kDa) of the protein marker are indicated. Black lines designate composite images, assembled from the same blots and exposure times. The methylation signals of the substrates were densitometrically quantified, and expressed relative to the DMSO-treated control, as indicated by the numbers below the autoradiographs. Representative results are depicted, with quantification graphs (below the autoradiographs in A and B) summarizing biological replicates. […] Subsequently, GST-GAR was immobilized on glutathione-beads and PRMT1 activity was measured by quantifying the incorporation of ^14C-methyl groups (in cpm) using liquid scintillation counting. […] Cell viability was quantified using the CellTiter-Glo assay. […] Subsequently, whole-cell extracts were prepared and analyzed by Western blot using antibodies against ADMA, ACTIN (ACT), and VINCULIN (VINC), of which the latter two stainings served as loading controls. […] All the ADMA signals per lane were densitometrically quantified, normalized to the signal of the respective loading control and expressed relative to the DMSO-treated control, as indicated by the numbers below the immunostainings. […]

[1] = Tolerability, body weight monitoring of xenograft mice; settings: female athymic nude mice, 150 mg/kg TR-07 daily, 10 mg/kg gemcitabine every second day, 2 weeks

## (Z)-2-(2-{[(1,3-Dioxo-2,3-dihydroisoquinolin-4(1H)-ylidene)methyl]amino}phenyl)-N,N-dimethylethan-1-aminium chloride [ICTR-059]
FLAG-tagged PRMT3; 100 μM compound
  effect on PRMT3 activity (in words): concomitant PRMT3 activation

## CN(C)Cc1cccc(-c2ccc3[nH]c(=O)c4ccccc4c3c2)c1 [TR-033, 2-{3-[(Dimethylamino)methyl]phenyl}phenanthridin-6(5H)-One]
ADMA in PANC-1 cells
  global arginine methylation (ADMA) in cells: did not produce consistent effects

## CN(C)Cc1cccc(CN/C=C2\C(=O)NC(=O)c3ccccc32)c1.Cl [TR-07, (Z)-1-[3-({[(1,3-Dioxo-2,3-dihydroisoquinolin-4(1H)-lidene)methyl]amino}methyl)phenyl]-N,N-dimethylmethanaminium chloride]
FLAG-tagged PRMT3; 100 μM compound
  effect on PRMT3 activity (in words): neither positively nor negatively influencing
FLAG-tagged PRMT3; Table 1, 100 μM compound, 2 μM PRMT, n = 3, racemates used
  Experimental result (PRMT3): PRMT3 n.e. (Compounds, which did not significantly affect the catalytic activity (less than ±6% change or not significant p-value), are marked with [drawing 8] (no effect))
FLAG-tagged PRMT3; Table S3, 100 µM compound, n≥3
  Experimental result (PRMT3): n.e. (did not significantly affect the catalytic activity (less than ±6% change or not significant p-value), are marked with n.e. (no effect))
[1]
  tolerability (adverse or systemic toxic effects, body weights): well tolerated
ADMA in PANC-1 cells
  global arginine methylation (ADMA) in cells: concentration-dependent increase in global arginine methylation
